Legend:
Format in all cases: in vivo, human
[1] = system: relapsed multiple myeloma; assay: Phase 2 clinical study M34100-024 (first relapse)
Description: (§1) See Richardson P G, et al. N Engl J Med., 348:2609-17 (2003). […] See Jagannath, Br J Haematol. 127:165-72 (2004). Patient samples and response criteria from patients participating in these studies, as well as the following additional studies described below were sought for use in pharmacogenomic analyses to identify markers associated with patient survival.

[2] = system: multiple myeloma; assay: Response (EBMT criteria) in the pharmacogenomic patient subset; conditions: for CR (number of patients) / MR (number of patients) / NC (number of patients) / PD (number of patients) / PR (number of patients): study 039, pharmacogenomic patients
Protocol: (§2) During the study, disease response was assessed according to the European Group for Blood and Marrow Transplant (EBMT) criteria as presented in Table C.
A total of 264 patient samples were assessed for pharmacogenomic analyses. These patient samples were collected from the clinical trials of bortezomib for the treatment of multiple myeloma (see Table E). […] All pharmacogenomic analyses relied on the European Group for Blood and Marrow Transplant (EBMT) criteria of response category.

[3] = system: multiple myeloma; assay: Phase 2 clinical study M34100-025 (second or greater relapse, refractory to last prior therapy); conditions: bortezomib alone
Description: as §1

[4] = system: relapsed or refractory multiple myeloma; assay: Open-label randomized study of bortezomib versus high-dose dexamethasone (Protocol M34101-039); conditions: for survival: 22 month median follow-up, 44% events occurred; for One-year survival: in vivo
Protocol: A multicenter, open-label, randomized study was conducted, comprising 627 enrolled patients with relapsed or refractory multiple myeloma (Protocol M34101-039). See Richardson et. al., N. Engl. J. Med., 352:2487-2498 (2005).
Randomization was to be stratified, based on the number of lines of prior therapy (one prior line versus more than one prior line of therapy), time of progression relative to treatment (progression while on their most recent therapy or within 6 months of stopping their most recent therapy, or relapse >6 months after receiving their most recent therapy), and screening β2-microglobulin levels (>2.5 mg/L versus ≦2.5 mg/L).
Patients assigned to the high-dose dexamethasone group received treatment for a maximum of 280 days. Patients in this treatment group received up to four 5-week treatment cycles, followed by up to five 4-week treatment cycles. Within each 5-week treatment cycle, the patient received dexamethasone 40 mg/day PO, once daily on Days 1 to 4, 9 to 12, and 17 to 20 of a 35-day cycle. Within each 4-week treatment cycle, the patient received dexamethasone 40 mg/day PO once daily on Days 1 to 4 of a 28 day cycle.
as §2
See Richardson P G, et al. [submitted NEJM].
Disease progression was determined by Blade criteria as described in Table C and above. […] The date of progression was determined by computer algorithm. P-value from log-rank test adjusted by actual randomization factors. See, Richardson et al., New Engl J Med., submitted.

[5] = best confirmed response, bortezomib n = 315, dexamethasone n = 312
[6] = difference in response rates, bortezomib versus dexamethasone
[7] = pharmacogenomic set of patients, EBMT criteria

Structure (SMILES): CC(C)C[C@H](NC(=O)[C@H](Cc1ccccc1)NC(=O)c1cnccn1)B(O)O [bortezomib, N-pyrazinecarbonyl-L-phenylalanine-L-leucineboronic acid]
- CR+PR rate ([1]; bortezomib 1.0 mg/m^2): 30%
- CR+PR rate ([1]; bortezomib 1.3 mg/m^2): 38%
- CR (number of patients) [2]: 5
- MR (number of patients) [2]: 5
- NC (number of patients) [2]: 19
- PD (number of patients) [2]: 13
- PR (number of patients) [2]: 25
- CR+PR rate ([3]; 53 of 193 patients): 27%
- overall response rate (CR+PR+MR) ([3]; 67 of 193 patients): 35%
- survival [4]: 30 months
- Complete Response [4, 5]: 20 (6) n (%)
- Minor Response [4, 5]: 25 (8) n (%)
- Near CR: IF+ [4, 5]: 21 (7) n (%)
- Progressive Disease [4, 5]: 22 (7) n (%)
- SWOG Remission [4, 5]: 46 (15) n (%)
- decrease in risk of death ([4]; bortezomib group versus dexamethasone, first year after enrollment): 41%
- Difference (95% CI), CR + PR + MR [4, 6]: 0.12 (0.04, 0.19)
- Difference (95% CI), Complete Response [4, 6]: 0.06 (0.03, 0.09)
- Difference (95% CI), Minor Response [4, 6]: −0.09 (−0.14, −0.04)
- Difference (95% CI), Near CR: IF+ [4, 6]: 0.06 (0.03, 0.09)
- Difference (95% CI), No Change [4, 6]: −0.04 (−0.12, 0.04)
- Difference (95% CI), Overall Response Rate (CR + PR) [4, 6]: 0.20 (0.14, 0.27)
- Difference (95% CI), Partial Response [4, 6]: 0.15 (0.08, 0.21)
- Difference (95% CI), Progressive Disease [4, 6]: −0.06 (−0.11, −0.01)
- Difference (95% CI), SWOG Remission [4, 6]: 0.09 (0.05, 0.14)
- One-year survival [4]: 80%

Structure (SMILES): C[C@@H]1C[C@H]2[C@@H]3CCC4=CC(=O)C=C[C@]4(C)[C@@]3(F)[C@@H](O)C[C@]2(C)[C@@]1(O)C(=O)CO [dexamethasone]
- CR+PR rate [2, 7]: 22.2%
- overall response rate [2, 7]: 39.7%
- CR (number of patients) [2]: 1
- MR (number of patients) [2]: 11
- NC (number of patients) [2]: 16
- PD (number of patients) [2]: 22
- PR (number of patients) [2]: 13
- survival [4]: 24 months
- Complete Response [4, 5]: 2 (<1) n (%)
- Minor Response [4, 5]: 52 (17) n (%)
- Near CR: IF+ [4, 5]: 3 (<1) n (%)
- Overall Response Rate (CR + PR) [4, 5]: 56 (18) n (%)
- Partial Response [4, 5]: 54 (17) n (%)
- Progressive Disease [4, 5]: 41 (13) n (%)
- SWOG Remission [4, 5]: 17 (5) n (%)
- One-year survival [4]: 66%

From US9500656B2, “Methods for the identification, assessment, and treatment of patients with cancer therapy” (Millennium Pharmaceuticals, Inc., priority 2006, dated 2016)
